Converted amounts (≈) assume the structure as drawn.
Experiments:
Candida albicans = experiment: Antifungal activity against Candida albicans NCIM 3417 by agar diffusion method; type: functional
Aspergillus niger = experiment: Antifungal activity against Aspergillus niger NCIM 1196 by agar diffusion method; type: functional
Pseudomonas aeruginosa = experiment: Antibacterial activity against Pseudomonas aeruginosa ATCC 10145 by broth dilution technique; type: functional
Bacillus subtilis = experiment: Antibacterial activity against Bacillus subtilis NCIM 2439 by broth dilution technique; type: functional
[1] = Octanol-water partition coefficient, log P of the compound; type: physicochemical
Staphylococcus aureus = experiment: Antibacterial activity against Staphylococcus aureus NCIM 2079 by broth dilution technique; type: functional
Escherichia coli = experiment: Antibacterial activity against Escherichia coli NCIM 5051 by broth dilution technique; type: functional
[2] = tested on: Mycobacterium tuberculosis; experiment: microbe, parasite or virus in culture; settings: H37Rv
Description: Antimycobacterial activity against Mycobacterium tuberculosis H37Rv by agar double dilution technique

`Cc1c(NCc2nnc(-c3ccccc3Cl)o2)c(=O)n(-c2ccccc2)n1C` gave an MIC (Candida albicans) of 256 µg/mL (≈ 647 µM), an MIC (Aspergillus niger) of 256 µg/mL (≈ 647 µM) and an MIC (Pseudomonas aeruginosa) of 8 µg/mL (≈ 20.2 µM). The MIC (Bacillus subtilis) was 4 µg/mL (≈ 10.1 µM), the logP [1] was 2.72 and the MIC (Staphylococcus aureus) was 4 µg/mL (≈ 10.1 µM). The MIC (Escherichia coli) was 4 µg/mL (≈ 10.1 µM) and the MIC90 [2] was 1.97 µM (≈ 0.78 µg/mL).

`Cc1c(NCc2nnc(-c3ccc(Cl)cc3)o2)c(=O)n(-c2ccccc2)n1C` showed an MIC (Candida albicans) of 128 µg/mL (≈ 323 µM), an MIC (Aspergillus niger) of 256 µg/mL (≈ 647 µM) and an MIC (Pseudomonas aeruginosa) of 8 µg/mL (≈ 20.2 µM). It also gave an MIC (Bacillus subtilis) of 8 µg/mL (≈ 20.2 µM), a logP [1] of 2.7 and an MIC (Staphylococcus aureus) of 8 µg/mL (≈ 20.2 µM). For the same compound, the MIC (Escherichia coli) was 4 µg/mL (≈ 10.1 µM) and the MIC90 [2] was 3.94 µM (≈ 1.56 µg/mL).

For `Cc1c(NCc2nnc(-c3ccc(N)cc3)o2)c(=O)n(-c2ccccc2)n1C`, the MIC (Candida albicans) was 128 µg/mL (≈ 340 µM), the MIC (Aspergillus niger) was 128 µg/mL (≈ 340 µM) and the MIC (Pseudomonas aeruginosa) was 64 µg/mL (≈ 170 µM). It also gave an MIC (Bacillus subtilis) of 32 µg/mL (≈ 85 µM), a logP [1] of 1.13 and an MIC (Staphylococcus aureus) of 16 µg/mL (≈ 42.5 µM). The MIC (Escherichia coli) was 16 µg/mL (≈ 42.5 µM) and the MIC90 [2] was 4.15 µM (≈ 1.56 µg/mL).

`Cc1c(NCc2nnc(-c3ccncc3)o2)c(=O)n(-c2ccccc2)n1C` gave an MIC (Candida albicans) of 256 µg/mL (≈ 706 µM), an MIC (Aspergillus niger) of 256 µg/mL (≈ 706 µM) and an MIC (Pseudomonas aeruginosa) of 32 µg/mL (≈ 88.3 µM). It also gave an MIC (Bacillus subtilis) of 16 µg/mL (≈ 44.2 µM), a logP [1] of 0.8 and an MIC (Staphylococcus aureus) of 16 µg/mL (≈ 44.2 µM). It also gave an MIC (Escherichia coli) of 16 µg/mL (≈ 44.2 µM) and an MIC90 [2] of 0.78 µM (≈ 0.283 µg/mL).

`Cc1c(NCc2nnc(-c3ccccc3O)o2)c(=O)n(-c2ccccc2)n1C` gave an MIC (Candida albicans) of 16 µg/mL (≈ 42.4 µM), an MIC (Aspergillus niger) of 8 µg/mL (≈ 21.2 µM) and an MIC (Pseudomonas aeruginosa) of 128 µg/mL (≈ 339 µM). It also gave an MIC (Bacillus subtilis) of 64 µg/mL (≈ 170 µM), a logP [1] of 1.71 and an MIC (Staphylococcus aureus) of 128 µg/mL (≈ 339 µM). The MIC (Escherichia coli) was 128 µg/mL (≈ 339 µM) and the MIC90 [2] was greater than 13.2 µM.

`CC(=O)Oc1ccccc1-c1nnc(CNc2c(C)n(C)n(-c3ccccc3)c2=O)o1` gave an MIC (Candida albicans) of 512 µg/mL (≈ 1220 µM), an MIC (Aspergillus niger) of 512 µg/mL (≈ 1220 µM) and an MIC (Pseudomonas aeruginosa) of 512 µg/mL (≈ 1220 µM). The MIC (Bacillus subtilis) was 256 µg/mL (≈ 610 µM), the logP [1] was 1.98 and the MIC (Staphylococcus aureus) was 512 µg/mL (≈ 1220 µM). For the same compound, the MIC (Escherichia coli) was 256 µg/mL (≈ 610 µM) and the MIC90 [2] was greater than 12.8 µM.

Compound `Cc1c(NCc2nnc(-c3ccccc3)o2)c(=O)n(-c2ccccc2)n1C` has an MIC (Candida albicans) of 512 µg/mL (≈ 1420 µM), an MIC (Aspergillus niger) of 512 µg/mL (≈ 1420 µM) and an MIC (Pseudomonas aeruginosa) of 512 µg/mL (≈ 1420 µM). It also gave an MIC (Bacillus subtilis) of 512 µg/mL (≈ 1420 µM), a logP [1] of 2.02 and an MIC (Staphylococcus aureus) of 512 µg/mL (≈ 1420 µM). The MIC (Escherichia coli) was 512 µg/mL (≈ 1420 µM) and the MIC90 [2] was 10 µM (≈ 3.61 µg/mL).

Work on `COc1ccc(-c2nnc(CNc3c(C)n(C)n(-c4ccccc4)c3=O)o2)cc1` yielded an MIC (Candida albicans) of 32 µg/mL (≈ 81.8 µM), an MIC (Aspergillus niger) of 16 µg/mL (≈ 40.9 µM) and an MIC (Pseudomonas aeruginosa) greater than 512 µg/mL. For the same compound, the MIC (Bacillus subtilis) was greater than 512 µg/mL, the logP [1] was 2.07 and the MIC (Staphylococcus aureus) was greater than 512 µg/mL. The MIC (Escherichia coli) was 256 µg/mL (≈ 654 µM) and the MIC90 [2] was greater than 12.8 µM.

Compound `Cc1ccccc1-c1nnc(CNc2c(C)n(C)n(-c3ccccc3)c2=O)o1` has an MIC (Candida albicans) of 16 µg/mL (≈ 42.6 µM), an MIC (Aspergillus niger) of 8 µg/mL (≈ 21.3 µM) and an MIC (Pseudomonas aeruginosa) of 512 µg/mL (≈ 1360 µM). For the same compound, the MIC (Bacillus subtilis) was 256 µg/mL (≈ 682 µM), the logP [1] was 2.38 and the MIC (Staphylococcus aureus) was 256 µg/mL (≈ 682 µM). For the same compound, the MIC (Escherichia coli) was 256 µg/mL (≈ 682 µM) and the MIC90 [2] was greater than 13.3 µM.

In the case of `Cc1cccc(-c2nnc(CNc3c(C)n(C)n(-c4ccccc4)c3=O)o2)c1`, the MIC (Candida albicans) is reported as 256 µg/mL (≈ 682 µM), the MIC (Aspergillus niger) is reported as 128 µg/mL (≈ 341 µM) and the MIC (Pseudomonas aeruginosa) is reported as greater than 512 µg/mL. The MIC (Bacillus subtilis) was greater than 512 µg/mL, the logP [1] was 2.39 and the MIC (Staphylococcus aureus) was greater than 512 µg/mL. For the same compound, the MIC (Escherichia coli) was 512 µg/mL (≈ 1360 µM) and the MIC90 [2] was greater than 13.3 µM.

With `Cc1ccc(-c2nnc(CNc3c(C)n(C)n(-c4ccccc4)c3=O)o2)cc1` the MIC (Candida albicans) was 4 µg/mL (≈ 10.7 µM), the MIC (Aspergillus niger) was 4 µg/mL (≈ 10.7 µM) and the MIC (Pseudomonas aeruginosa) was 512 µg/mL (≈ 1360 µM). It also gave an MIC (Bacillus subtilis) of 512 µg/mL (≈ 1360 µM), a logP [1] of 2.48 and an MIC (Staphylococcus aureus) of 512 µg/mL (≈ 1360 µM). For the same compound, the MIC (Escherichia coli) was 256 µg/mL (≈ 682 µM) and the MIC90 [2] was 10 µM (≈ 3.75 µg/mL).

With `Cc1c(NCc2nnc(Cc3ccccc3)o2)c(=O)n(-c2ccccc2)n1C` the MIC (Candida albicans) was 512 µg/mL (≈ 1360 µM), the MIC (Aspergillus niger) was 512 µg/mL (≈ 1360 µM) and the MIC (Pseudomonas aeruginosa) was 256 µg/mL (≈ 682 µM). It also gave an MIC (Bacillus subtilis) of 256 µg/mL (≈ 682 µM), a logP [1] of 1.64 and an MIC (Staphylococcus aureus) of 256 µg/mL (≈ 682 µM). It also gave an MIC (Escherichia coli) of 256 µg/mL (≈ 682 µM) and an MIC90 [2] of 10 µM (≈ 3.75 µg/mL).

Compound `Cc1c(NCc2nnc(COc3ccccc3)o2)c(=O)n(-c2ccccc2)n1C` has an MIC (Candida albicans) of 512 µg/mL (≈ 1310 µM), an MIC (Aspergillus niger) greater than 512 µg/mL and an MIC (Pseudomonas aeruginosa) of 128 µg/mL (≈ 327 µM). It also gave an MIC (Bacillus subtilis) of 128 µg/mL (≈ 327 µM), a logP [1] of 0.98 and an MIC (Staphylococcus aureus) of 128 µg/mL (≈ 327 µM). It also gave an MIC (Escherichia coli) of 64 µg/mL (≈ 164 µM) and an MIC90 [2] of 12.8 µM (≈ 5 µg/mL).

`Cc1c(NCc2nnc(-c3cccs3)o2)c(=O)n(-c2ccccc2)n1C` gave an MIC (Candida albicans) of 256 µg/mL (≈ 697 µM), an MIC (Aspergillus niger) of 128 µg/mL (≈ 348 µM) and an MIC (Pseudomonas aeruginosa) of 8 µg/mL (≈ 21.8 µM). The MIC (Bacillus subtilis) was 16 µg/mL (≈ 43.5 µM), the logP [1] was 1.9 and the MIC (Staphylococcus aureus) was 8 µg/mL (≈ 21.8 µM). The MIC (Escherichia coli) was 8 µg/mL (≈ 21.8 µM) and the MIC90 [2] was 6.81 µM (≈ 2.5 µg/mL).

Work on `O=C(O)c1cn(C2CC2)c2cc(N3CCNCC3)c(F)cc2c1=O` [CIPROFLOXACIN] yielded an MIC (Pseudomonas aeruginosa) of 4 µg/mL (≈ 12.1 µM), an MIC (Bacillus subtilis) of 4 µg/mL (≈ 12.1 µM) and an MIC (Staphylococcus aureus) of 4 µg/mL (≈ 12.1 µM).

For `OC(Cn1cncn1)(Cn1cncn1)c1ccc(F)cc1F` [FLUCONAZOLE], the MIC (Candida albicans) was 1 µg/mL (≈ 3.27 µM) and the MIC (Aspergillus niger) was 2 µg/mL (≈ 6.53 µM).

Compound `NNC(=O)c1ccncc1` [ISONIAZID] has an MIC90 [2] of 0.78 µM (≈ 0.107 µg/mL).

Source: ChEMBL document CHEMBL1921682, “Molecular properties prediction and synthesis of novel 1,3,4-oxadiazole analogues as potent antimicrobial and antitubercular agents” (Bioorg Med Chem Lett, 2011)
